Laboratory results from patent US7056903B2, “Carboxylic acid derivatives as IP antagonists” (Syntex (U.S.A.) LLC, priority 2000, dated 2006).
Values joined by “and” are separate entries in the source; they are usually repeats but may differ in a detail not shown here. Identical values can stand only once. Counter-ions that a name gives are not always drawn.

Structure (SMILES)	melting point
O=C(N[C@H](Cc1ccccc1)C(=O)O)OCC1Cc2cc(-c3ccccc3)ccc2O1 (stereo partly drawn) (as salt: salt) [Compound 68, (R)-3-Phenyl-2-(5-phenyl-2,3-dihydro-benzofuran-2-ylmethoxycarbonylamino)-propionic acid]	176.3 to 182 °C
COc1cccc(OCc2ccc(COC(=O)NC(Cc3ccccc3)C(=O)O)cc2)c1 (stereo not shown) (hydrate or solvate) [Compound 154, 2-[4-(3-methoxy-phenoxymethyl)-benzyloxycarbonylamino]-3-phenyl-propionic acid]	62.5 to 64.8 °C
O=C(N[C@H](Cc1ccccc1)C(=O)O)OCc1ccc(COc2ccccc2)cc1 [Compound 7, (R)-2-(4-Phenoxymethyl-benzyloxycarbonylamino)-3-phenyl-propionic acid]	115.9 to 116.7 °C
O=C(NC(Cc1ccccc1)C(=O)O)OCc1ccc(COc2cccc3[nH]ccc23)cc1 (stereo not shown) [Compound 41, 2-[4-(1H-indol-4-yloxymethyl)-benzyloxycarbonylamino]-3-phenyl-propionic acid]	106.8 to 108.2 °C and 105.9 to 108.5 °C
O=C(NC(Cc1ccccc1)C(=O)O)OCc1ccc(CCOc2ccccc2)cc1 (stereo not shown) [Compound 73, 2-[4-(2-Phenoxy-ethyl)-benzyloxycarbonylamino]-3-phenyl-propionic acid]	150.2 to 152.4 °C
COc1ccccc1OCc1ccc(COC(=O)NC(Cc2ccccc2)C(=O)O)cc1 (stereo not shown) [Compound 74, 2-[4-(2-methoxy-phenoxymethyl)-benzyloxycarbonylamino]-3-phenyl propionic acid]	92.6 to 93.5 °C
O=C(NC(Cc1ccccc1)C(=O)O)OCc1ccc(COc2ccccc2F)cc1 (stereo not shown) [Compound 75, 2-[4-(2-fluoro-phenoxymethyl)-benzyloxycarbonylamino]-3-phenyl-propionic acid]	114 to 117 °C
O=C(NC(Cc1ccccc1)C(=O)O)OCc1ccc(COc2cccc(F)c2)cc1 (stereo not shown) [Compound 76, 2-[4-(3-fluoro-phenoxymethyl)-benzyloxycarbonylamino]-3-phenyl-propionic acid]	107.9 to 110 °C
CS(=O)(=O)Nc1cccc(OCc2ccc(COC(=O)N[C@H](Cc3ccccc3)C(=O)O)cc2)c1 [Compound 77, (R)-2-[4-(3-methanesulfonylamino-phenoxymethyl)-benzyloxycarbonylamino]-3-phenyl-propionic acid]	161.9 to 164.9 °C
O=C(N[C@H](Cc1ccccc1)C(=O)O)OCc1ccc(COc2cccc(NS(=O)(=O)c3ccccc3)c2)cc1 [Compound 78, (R)-2-[4-(3-benzenesulfonylamino-phenoxymethyl)-benzyloxycarbonylamino]-3-phenyl-propionic acid]	96.6 to 98.6 °C

More lines, now with the values ahead:

melting point	Structure (SMILES)
150.9 to 152.7 °C	O=C(N[C@H](Cc1ccccc1)C(=O)O)OCc1nc2cc(-c3ccccc3)ccc2o1 (as salt: ammonium) [Compound 53, (R)-3-phenyl-2-(5-phenyl-benzoxazol-2-ylmethoxycarbonylamino) propionic acid]
100 to 106 °C	O=C(N[C@H](Cc1ccccc1)C(=O)O)OCc1cc2cc(-c3cccc4[nH]ccc34)ccc2o1 (as salt: salt) [Compound 137, (R)-2-[5-(1H-indol-4-yl)-benzofuran-2-ylmethoxycarbonylamino]-3-phenyl-propionic acid]
129.5 to 131.5 °C	O=C(N[C@H](Cc1ccccc1)C(=O)O)OCc1cc2cc(-c3ccc(F)cc3)ccc2o1 (hydrate or solvate) [Compound 91, (R)-2-[5-(4-fluoro-phenyl)-benzofuran-2-ylmethoxycarbonylamino]-3-phenyl-propionic acid]
132 to 156.1 °C	COc1ccc(-c2ccc3oc(COC(=O)N[C@H](Cc4ccccc4)C(=O)O)cc3c2)cc1 (hydrate or solvate) [Compound 92, (R)-2-[5-(4-methoxy-phenyl)-benzofuran-2-ylmethoxycarbonylamino]-3-phenyl-propionic acid]
129.5 to 144 °C	O=C(N[C@H](Cc1ccccc1)C(=O)O)OCc1cc2cc(-c3ccc(Cl)cc3)ccc2o1 (hydrate or solvate) [Compound 94, (R)-2-[5-(4-chloro-phenyl)-benzofuran-2-ylmethoxycarbonylamino]-3-phenyl-propionic acid]
151 to 154 °C	Cc1ccc(-c2ccc3oc(COC(=O)N[C@H](Cc4ccccc4)C(=O)O)cc3c2)cc1 (hydrate or solvate) [Compound 95, (R)-2-[5-(4-methyl-phenyl)-benzofuran-2-ylmethoxycarbonylamino]-3-phenyl-propionic acid]
64 to 68.5 °C	N#Cc1cccc(-c2ccc3oc(COC(=O)N[C@H](Cc4ccccc4)C(=O)O)cc3c2)c1 (hydrate or solvate) [Compound 96, (R)-2-[5-(3-cyano-phenyl)-benzofuran-2-ylmethoxycarbonylamino]-3-phenyl-propionic acid]
125 to 131 °C	O=C(N[C@H](Cc1ccccc1)C(=O)O)OCc1cc2cc(-c3ccc4c(c3)OCO4)ccc2o1 (hydrate or solvate) [Compound 97, (R)-2-(5-benzo[1,3]dioxol-5-yl-benzofuran-2-ylmethoxycarbonylamino)-3-phenyl-propionic acid]
97.1 to 100.8 °C	O=C(N[C@H](Cc1ccccc1)C(=O)O)OCc1cc2cc(-c3ccccc3F)ccc2o1 (hydrate or solvate) [Compound 98, (R)-2-[5-(2-fluoro-phenyl)-benzofuran-2-ylmethoxycarbonylamino]-3-phenyl-propionic acid]
131.5 to 135 °C	O=C(N[C@H](Cc1ccc(F)cc1)C(=O)O)OCc1cc2cc(-c3ccccc3)ccc2o1 (hydrate or solvate) [Compound 105, (R)-3-(4-fluoro-phenyl)-2-(5-phenylbenzofuran-2-ylmethoxycarbonylamino)-propionic acid]
158 to 162 °C	O=C(N[C@H](Cc1ccc(F)cc1)C(=O)O)OCc1cc2cc(-c3ccc(F)cc3)ccc2o1 (hydrate or solvate) [Compound 111, (R)-3-(4-fluoro-phenyl)-2-[5-(4-fluorophenyl)-benzofuran-2-ylmethoxycarbonylamino]-propionic acid]
84 to 87.5 °C	N#Cc1cccc(-c2ccc3oc(COC(=O)N[C@H](Cc4ccc(F)cc4)C(=O)O)cc3c2)c1 (hydrate or solvate) [Compound 112, (R)-2-[5-(3-cyano-phenyl)-benzofuran-2-ylmethoxycarbonylamino]-3-(4-fluoro-phenyl)-propionic acid]
176.9 to 178.4 °C	O=C(N[C@H](Cc1ccc(F)cc1)C(=O)O)OCc1cc2cc(-c3cccnc3)ccc2o1 (hydrate or solvate) [Compound 125, (R)-3-(4-fluoro-phenyl)-2-(5-pyridin-3-yl-benzofuran-2-ylmethoxycarbonylamino)-propionic acid]
154 to 156 °C	O=C(N[C@H](Cc1ccccc1)C(=O)O)OCc1cc2cc(-c3ccccc3)ccc2o1 [Compound 19, (R)-2-(5-Phenyl-benzofuran-2-ylmethoxycarbonylamino)-3-phenyl-propionic acid]
172.8 to 173.5 °C	O=C(N[C@H](Cc1ccccc1)C(=O)O)OCc1ccc2oc(-c3ccccc3)cc2c1 [Compound 29, (R)-3-Phenyl-2-(2-phenyl-benzofuran-5-ylmethoxycarbonylamino)-propionic acid]
